According to ChEMBL document CHEMBL3885881, “DrugMatrix”:

Species: Rattus norvegicus
Assay: DrugMatrix - Regimen: Daily Repeat
Type: toxicity, organism-based, Sprague-Dawley
Set-up: regimen Daily Repeat, gender Male, age 6-8 weeks
Conditions: in vivo, po, route oral GAVAGE, vehicle .5 % CMC; for BASOPHIL / EOSINOPHIL / ERYTHROCYTE COUNT / HEMATOCRIT / HEMOGLOBIN / LEUKOCYTE COUNT / LYMPHOCYTE / MEAN CORPUSCULAR HEMOGLOBIN / MEAN CORPUSCULAR HEMOGLOBIN CONCENTRATION / MEAN CORPUSCULAR VOLUME / MONOCYTE / NEUTROPHIL / PLATELET COUNT: tissue Blood; for ALANINE AMINOTRANSFERASE / ALBUMIN / ALKALINE PHOSPHATASE / ASPARTATE AMINOTRANSFERASE / BLOOD UREA NITROGEN / CHLORIDE / CHOLESTEROL / CREATINE PHOSPHOKINASE / CREATININE / GLUCOSE / PHOSPHORUS / POTASSIUM / SODIUM / TOTAL BILIRUBIN / TOTAL PROTEIN: tissue Plasma
[1] = 0 mg/kg, 72 h, dose level Control, time 3 day
[2] = 0 mg/kg, 120 h, dose level Control, time 5 day
[3] = 120 mg/kg, 72 h, dose level Low, time 3 day
[4] = 120 mg/kg, 120 h, dose level Low, time 5 day
[5] = 1500 mg/kg, 72 h, dose level High, time 3 day
[6] = 1500 mg/kg, 120 h, dose level High, time 5 day

## CC1CC(OC(=O)C(O)c2ccccc2)CC(C)(C)C1 (stereo not drawn) [CYCLANDELATE]
[1]
  BASOPHIL: 0%
  EOSINOPHIL: 0%
  ERYTHROCYTE COUNT: 6.34 x10E6/uL
  HEMATOCRIT: 37.62%
  HEMOGLOBIN: 14.82 G/DL
  LEUKOCYTE COUNT: 11.18 x10E3/uL
  LYMPHOCYTE: 87.5%
  MEAN CORPUSCULAR HEMOGLOBIN: 23.48 pg
  MEAN CORPUSCULAR HEMOGLOBIN CONCENTRATION: 39.5 G/DL
  MEAN CORPUSCULAR VOLUME: 59.45 fL
  MONOCYTE: 1.67%
  NEUTROPHIL: 10.83%
  PLATELET COUNT: 1074.83 x10E3/uL
  ALANINE AMINOTRANSFERASE: 36.5 u/L
  ALBUMIN: 3.9 G/DL
  ALKALINE PHOSPHATASE: 370.17 u/L
  ASPARTATE AMINOTRANSFERASE: 63.17 u/L
  BLOOD UREA NITROGEN: 16.83 mg/dL
  CHLORIDE: 99.33 MEQ/L
  CHOLESTEROL: 64.33 mg/dL
  CREATINE PHOSPHOKINASE: 127 u/L
  CREATININE: 0.55 mg/dL
  GLUCOSE: 173.5 mg/dL
  PHOSPHORUS: 10.08 mg/dL
  POTASSIUM: 6.23 MEQ/L
  SODIUM: 143.5 MEQ/L
  TOTAL BILIRUBIN: 0.52 mg/dL
  TOTAL PROTEIN: 6.35 G/DL
[2]
  BASOPHIL: 0%
  EOSINOPHIL: 0.17%
  ERYTHROCYTE COUNT: 6.12 x10E6/uL
  HEMATOCRIT: 37.08%
  HEMOGLOBIN: 14.82 G/DL
  LEUKOCYTE COUNT: 11.87 x10E3/uL
  LYMPHOCYTE: 83.33%
  MEAN CORPUSCULAR HEMOGLOBIN: 24.25 pg
  MEAN CORPUSCULAR HEMOGLOBIN CONCENTRATION: 39.97 G/DL
  MEAN CORPUSCULAR VOLUME: 60.65 fL
  MONOCYTE: 1.5%
  NEUTROPHIL: 15%
  PLATELET COUNT: 1042.83 x10E3/uL
  ALANINE AMINOTRANSFERASE: 46 u/L
  ALBUMIN: 3.82 G/DL
  ALKALINE PHOSPHATASE: 369.5 u/L
  ASPARTATE AMINOTRANSFERASE: 65 u/L
  BLOOD UREA NITROGEN: 16.33 mg/dL
  CHLORIDE: 100.67 MEQ/L
  CHOLESTEROL: 57.17 mg/dL
  CREATINE PHOSPHOKINASE: 130 u/L
  CREATININE: 0.53 mg/dL
  GLUCOSE: 163.33 mg/dL
  PHOSPHORUS: 9.53 mg/dL
  POTASSIUM: 6.27 MEQ/L
  SODIUM: 144.83 MEQ/L
  TOTAL BILIRUBIN: 0.55 mg/dL
  TOTAL PROTEIN: 6.32 G/DL
[3]
  BASOPHIL: 0%
  EOSINOPHIL: 0.67%
  ERYTHROCYTE COUNT: 6.2 x10E6/uL
  HEMATOCRIT: 37.27%
  HEMOGLOBIN: 14.57 G/DL
  LEUKOCYTE COUNT: 11.3 x10E3/uL
  LYMPHOCYTE: 86.33%
  MEAN CORPUSCULAR HEMOGLOBIN: 23.5 pg
  MEAN CORPUSCULAR HEMOGLOBIN CONCENTRATION: 39.1 G/DL
  MEAN CORPUSCULAR VOLUME: 60.1 fL
  MONOCYTE: 1.33%
  NEUTROPHIL: 11.67%
  PLATELET COUNT: 1168 x10E3/uL
  ALANINE AMINOTRANSFERASE: 38.33 u/L
  ALBUMIN: 3.93 G/DL
  ALKALINE PHOSPHATASE: 369.67 u/L
  ASPARTATE AMINOTRANSFERASE: 55.67 u/L
  BLOOD UREA NITROGEN: 14 mg/dL
  CHLORIDE: 99 MEQ/L
  CHOLESTEROL: 67.67 mg/dL
  CREATINE PHOSPHOKINASE: 114.33 u/L
  CREATININE: 0.53 mg/dL
  GLUCOSE: 156 mg/dL
  PHOSPHORUS: 10.37 mg/dL
  POTASSIUM: 6.13 MEQ/L
  SODIUM: 144.67 MEQ/L
  TOTAL BILIRUBIN: 0.37 mg/dL
  TOTAL PROTEIN: 6.33 G/DL
[4]
  BASOPHIL: 0%
  EOSINOPHIL: 0%
  ERYTHROCYTE COUNT: 5.8 x10E6/uL
  HEMATOCRIT: 35%
  HEMOGLOBIN: 14.13 G/DL
  LEUKOCYTE COUNT: 12.1 x10E3/uL
  LYMPHOCYTE: 90.33%
  MEAN CORPUSCULAR HEMOGLOBIN: 24.37 pg
  MEAN CORPUSCULAR HEMOGLOBIN CONCENTRATION: 40.4 G/DL
  MEAN CORPUSCULAR VOLUME: 60.3 fL
  MONOCYTE: 0.67%
  NEUTROPHIL: 9%
  PLATELET COUNT: 1005.67 x10E3/uL
  ALANINE AMINOTRANSFERASE: 37 u/L
  ALBUMIN: 3.63 G/DL
  ALKALINE PHOSPHATASE: 308.67 u/L
  ASPARTATE AMINOTRANSFERASE: 59 u/L
  BLOOD UREA NITROGEN: 13.33 mg/dL
  CHLORIDE: 99.67 MEQ/L
  CHOLESTEROL: 64 mg/dL
  CREATINE PHOSPHOKINASE: 121.33 u/L
  CREATININE: 0.53 mg/dL
  GLUCOSE: 159 mg/dL
  PHOSPHORUS: 10.83 mg/dL
  POTASSIUM: 6.27 MEQ/L
  SODIUM: 145.33 MEQ/L
  TOTAL BILIRUBIN: 0.37 mg/dL
  TOTAL PROTEIN: 5.93 G/DL
[5]
  BASOPHIL: 0%
  EOSINOPHIL: 0%
  ERYTHROCYTE COUNT: 5.97 x10E6/uL
  HEMATOCRIT: 37.13%
  HEMOGLOBIN: 14.77 G/DL
  LEUKOCYTE COUNT: 13.43 x10E3/uL
  LYMPHOCYTE: 84.67%
  MEAN CORPUSCULAR HEMOGLOBIN: 24.83 pg
  MEAN CORPUSCULAR HEMOGLOBIN CONCENTRATION: 39.77 G/DL
  MEAN CORPUSCULAR VOLUME: 62.27 fL
  MONOCYTE: 0.33%
  NEUTROPHIL: 15%
  PLATELET COUNT: 1199 x10E3/uL
  ALANINE AMINOTRANSFERASE: 42.67 u/L
  ALBUMIN: 3.77 G/DL
  ALKALINE PHOSPHATASE: 377.33 u/L
  ASPARTATE AMINOTRANSFERASE: 59.67 u/L
  BLOOD UREA NITROGEN: 13.67 mg/dL
  CHLORIDE: 98.33 MEQ/L
  CHOLESTEROL: 67.67 mg/dL
  CREATINE PHOSPHOKINASE: 127.67 u/L
  CREATININE: 0.57 mg/dL
  GLUCOSE: 161.67 mg/dL
  PHOSPHORUS: 11.5 mg/dL
  POTASSIUM: 6.17 MEQ/L
  SODIUM: 143.33 MEQ/L
  TOTAL BILIRUBIN: 0.57 mg/dL
  TOTAL PROTEIN: 6.03 G/DL
[6]
  BASOPHIL: 0%
  EOSINOPHIL: 0.5%
  ERYTHROCYTE COUNT: 5.77 x10E6/uL
  HEMATOCRIT: 35.95%
  HEMOGLOBIN: 14.35 G/DL
  LEUKOCYTE COUNT: 10.4 x10E3/uL
  LYMPHOCYTE: 91.5%
  MEAN CORPUSCULAR HEMOGLOBIN: 24.9 pg
  MEAN CORPUSCULAR HEMOGLOBIN CONCENTRATION: 39.9 G/DL
  MEAN CORPUSCULAR VOLUME: 62.4 fL
  MONOCYTE: 0%
  NEUTROPHIL: 8%
  PLATELET COUNT: 1077.5 x10E3/uL
  ALANINE AMINOTRANSFERASE: 34.67 u/L
  ALBUMIN: 3.77 G/DL
  ALKALINE PHOSPHATASE: 393 u/L
  ASPARTATE AMINOTRANSFERASE: 55.67 u/L
  BLOOD UREA NITROGEN: 14.33 mg/dL
  CHLORIDE: 100 MEQ/L
  CHOLESTEROL: 87 mg/dL
  CREATINE PHOSPHOKINASE: 123.67 u/L
  CREATININE: 0.57 mg/dL
  GLUCOSE: 158 mg/dL
  PHOSPHORUS: 11.47 mg/dL
  POTASSIUM: 6.4 MEQ/L
  SODIUM: 144.33 MEQ/L
  TOTAL BILIRUBIN: 0.37 mg/dL
  TOTAL PROTEIN: 6.17 G/DL
